Data from US7977355B2, “N-(2-hydroxyethyl)-N-methyl-4-(quinolin-8-yl(1-(thiazol-4-ylmethyl)piperidin-4-ylidene)methyl” (Astrazeneca AB, priority 2006, dated 2011).

What was measured:
Thermodynamic solubility = type: physicochemical; details: aqueous buffer, thermodynamic from solid, 25° C., 100 mM phosphate buffer at pH 7.4
From the text: An aliqout of the saturated solution was then taken and its concentration measured by liquid chromatography/tandem mass spectrometry (LC/MS/MS). LC/MS/MS experimental conditions and instrumental parameters are described in detail in the LC/MS/MS section.

Log D (shake-flask) = type: physicochemical; details: octanol/buffer
Description: The determination of log D was based on the shake-flask principle. The compound(s) of the present invention was slurried in an octanol-saturated buffer solution and sonicated to promote dissolution. The solution was filtered to remove any insoluble. After an initial sample was taken, the solution volume is adjusted to 10 ml, and a known volume of buffer-saturated octanol is added. The two-phase solution is mixed, then separated by centrifugation. A second sample from the bottom layer (aqueous layer) was then taken. Both samples, which represented the solution concentrations of the compound before and after addition of octanol, were determined by LC/MS/MS. The determined concentrations were used to calculated the log D value.

CN(CCO)C(=O)c1ccc(C(=C2CCN(Cc3cscn3)CC2)c2cccc3cccnc23)cc1 [compound of the invention, N-(2-hydroxyethyl)-N-methyl-4-(quinolin-8-yl(1-(thiazol-4-ylmethyl)piperidin-4-ylidene)methyl)benzamide]
solubility at 24 h (Thermodynamic solubility): > 500 µM | logD (Log D (shake-flask)): 1.6
